Test results reported in patent US12378250B2, “Tricyclic compound as IRAK4 inhibitor” (KOREA RESEARCH INSTITUTE OF CHEMICAL TECHNOLOGY, priority 2018, dated 2025).
pIC50: −log10 of the molar value.

Assays:
[1] = tested on: ISG promoter, THP1-Lucia™ ISG cell line; assay: ISG promoter inhibition, THP1-Lucia ISG cell line; type: cell-based; conditions: 1 μg/ml Poly(dA:dT)/LyoVec, 24 hours, read-out: ISG, % inhibition degree
Method: (§1) A THP1-Lucia™ NF-κB cell line (Invivogen) was used in an NF-κB inhibition experiment, and a THP1-Lucia™ ISG cell line was used in an ISG inhibition experiment. In the NF-κB inhibition experiment, cells were planted at a density of 1×10^4 cells/well in a 96-well plate, and in the ISG inhibition experiment, cells were planted at a density of 2×10^4 cells/well in a 96-well plate. The cells were treated with a compound diluted to 4-fold of a final concentration, and totally cultured for 30 minutes. NF-κB was treated with 100 ng/ml lipopolysaccharide (LPS), ISG was treated with a stimulator of 1 μg/ml Poly(dA:dT)/LyoVec, and NF-κB and ISG were cultured for 24 hours. 10 μl of a cell supernatant was taken and transferred to a 96-well plate. 50 μl of a Quanti-luc solution was aliquoted using an automatic aliquoter of a measurer (Envision Multilabel Plate Reader, Perkin Elmer, Inc.), and light emission signals were measured.

[2] = tested on: IFN-α secretion, peripheral blood mononuclear cells (PBMCs); assay: Suppression of IFN-α secretion in ODN2216-treated PBMCs (ELISA); type: cell-based; conditions: PBMC, 500 nM ODN2216, 72 hours, read-out: IFN-α, % inhibition degree
Method: (§2) Peripheral blood mononuclear cells (PBMCs) isolated from whole blood were distributed in a 96-well plate. TNF-α was aliquoted at a density of 1×10^5 cells/well, IFN-α was aliquoted at a density of 2×10^5 cells/well, and TNF-α and IFN-α were treated with a compound diluted to 4-fold of a final concentration and totally cultured for 30 minutes. TNF-α was treated with 100 ng/ml lipopolysaccharide (LPS), IFN-α was treated with 500 nM ODN2216 (CpGTLR9 stimulator), and TNF-α and IFN-α were further cultured for 24 hours and 72 hours, respectively. An enzyme-linked immunosorbent assay (ELISA) was performed on TNF-α and IFN-α using an ELISA kit manufactured by BD Biosciences and an ELISA kit manufactured by PBL Assay Science, Inc., respectively. A cell supernatant and a standard drug were put into the ELISA plates and reacted for 2 hours. The plates were washed and a measurement antibody and streptavidin-HRP were sequentially added thereto. After the plates were washed, a TMB substrate was added thereto and reacted in a dark place. The reaction was stopped by adding a stop solution thereto, and the absorbance at 450 nm and 570 nm was measured using an absorber (OPTIMax tunable microplate reader, molecular devices). The experimental results are shown in [Table 2].

IRAK4 enzyme = molecular target: T1, IRAK4 enzyme (Homo sapiens, UniProt Q9NWZ3); assay: IRAK4 enzyme inhibition degree (bead-based kinase assay, peptide substrate BMKC-2, 100 μM ATP); type: biochemical; conditions: for inhibition at 1 µM: compound 1 μM
T1 sequence (Q9NWZ3 1-460): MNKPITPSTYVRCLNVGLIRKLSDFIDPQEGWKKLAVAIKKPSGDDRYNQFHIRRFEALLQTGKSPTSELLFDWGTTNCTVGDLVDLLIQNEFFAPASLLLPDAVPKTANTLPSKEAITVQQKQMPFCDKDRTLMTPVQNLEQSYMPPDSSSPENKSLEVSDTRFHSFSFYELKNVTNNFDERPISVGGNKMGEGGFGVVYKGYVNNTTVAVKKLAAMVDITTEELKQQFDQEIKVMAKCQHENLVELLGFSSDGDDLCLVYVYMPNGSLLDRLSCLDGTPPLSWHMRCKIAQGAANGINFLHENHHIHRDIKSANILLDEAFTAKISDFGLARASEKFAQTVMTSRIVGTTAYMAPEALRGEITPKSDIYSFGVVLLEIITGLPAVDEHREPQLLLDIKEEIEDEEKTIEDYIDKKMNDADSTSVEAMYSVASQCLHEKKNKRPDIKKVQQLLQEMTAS
Method in brief: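 IRAK4 (0.4 ng/μl stock) preincubated 10 min with compound, then 6 μM BMKC-2 peptide with 100 μM ATP (mix concentrations) for 60 min at room temperature; EDTA stop. Phospho-Thr antibody with AlphaScreen donor/acceptor beads detected product; % inhibition versus controls, IC50 by non-linear regression.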

[3] = tested on: TNF-α secretion, peripheral blood mononuclear cells (PBMCs); assay: Suppression of TNF-α secretion in LPS-treated PBMCs (ELISA); type: cell-based; conditions: PBMC, 100 ng/ml LPS, 24 hours, read-out: TNF-α, % inhibition degree
Method: as §2

[4] = tested on: TNF-α in serum, LPS-induced systemic inflammatory disease; assay: Suppressive effects on LPS-induced systemic inflammatory disease in mice (serum TNF-α); type: in vivo, C57BL/6 mice; conditions: doses of 50 and 100 mg/kg, oral, 2 hours prior to LPS 15 mg/kg i.p.
Method: As experimental animals, 8-week-old C57BL/6 (20 to 23 g) mice were supplied from Orient Bio Co., Ltd. (Seongnam, Gyeonggi-do) and used. The mice were acclimatized for 2 weeks or more in an animal room of the Korea Research Institute of Chemical Technology, where temperature (22±1° C.) and humidity (50±10%) were automatically adjusted, and then used for experiments, and allowed to freely ingest water and feed. This animal experiment was performed with the approval of the Animal Care and Use Committee of the Korea Research Institute of Chemical Technology. A systemic inflammatory disease was induced by administering a dose of 15 mg/kg lipopolysaccharide (LPS, Sigma L2880) intraperitoneally to the mice. A test drug was suspended in a 10% Cremophor solution and administered orally 2 hours prior to LPS injection, the mice were anesthetized with isoflurane 1 hour after LPS administration, and blood was collected from the heart. Serum was obtained by centrifuging the collected blood at 13,000 rpm for 15 minutes, store at −20° C., and then taken if needed to measure the content of cytokine (TNF-α) in serum using an ELISA kit manufactured by BD Biosciences. […]

[5] = tested on: NF-κB promoter, THP1-Lucia™ NF-κB cell line; assay: NF-κB promoter inhibition, THP1-Lucia NF-κB cell line; type: cell-based; conditions: 100 ng/ml LPS, 24 hours, read-out: NF-κB, % inhibition degree
Method: as §1

inhibition at 1 µM (IRAK4 enzyme)	pIC50 (IRAK4 enzyme)	Structure (SMILES)	inhibition at 0.1 µM [1]	inhibition at 1 µM [1]	inhibition at 0.1 µM [2]	inhibition at 1 µM [2]	inhibition at 0.1 µM [3]	inhibition at 1 µM [3]	suppressive effect on systemic inflammation (serum TNF-α) compared to PF-06650833 [4]	inhibition at 0.1 µM [5]	inhibition at 1 µM [5]
100%	–	COc1cncc(-c2ccc3[nH]c4ncnc(N[C@H]5CC[C@H](N6CCOCC6)CC5)c4c3c2)c1 [Compound 6aad, 6-(5-methoxypyridin-3-yl)-N-(trans-4-morpholinocyclohexyl)-9H-pyrimido[4,5-b]indole-4-amine]	37%	79%	31%	104%	42%	105%	better suppressive effect than PF-06650833	33%	78%
100%	8.14	COc1cncc(-c2ccc3[nH]c4nccc(N[C@H]5CC[C@H](N6CCOCC6)CC5)c4c3c2)c1 [Compound 17b, 6-(5-methoxypyridin-3-yl)-N-(trans-4-morpholinocyclohexyl)-9H-pyrimido[2,3-b]indole-4-amine]	4%	80%	76%	110%	12%	63%	–	14%	62%
100%	7.49	COc1cncc(-c2ccc3[nH]c4nccc(N[C@H]5CC[C@H](N6CCN(S(C)(=O)=O)CC6)CC5)c4c3c2)c1 [Compound 17c]	2%	52%	23%	99%	7%	88%	–	2%	53%
